Assay results taken from patent EP0938471B1, “THE PREPARATION AND USE OF ORTHO-SULFONAMIDO ARYL HYDROXAMIC ACIDS AS MATRIX METALLOPROTEINASE AND TACE INHIBITORS” (priority 1996, dated 1998).
pIC50: −log10 of the molar value. Where a name gives a salt, the structure may show the parent alone. Read-outs that look alike come from different tables or passages of the source.

Columns and labels:
Type in all cases: biochemical
[1] = target: T1, MMP-1 (Homo sapiens, UniProt P03956); assay: MMP-1 inhibition (thiopeptide or fluorescent peptide substrate assay); conditions: for pIC50: read-out: MMP-1 IC50
T1 sequence (P03956 100-469): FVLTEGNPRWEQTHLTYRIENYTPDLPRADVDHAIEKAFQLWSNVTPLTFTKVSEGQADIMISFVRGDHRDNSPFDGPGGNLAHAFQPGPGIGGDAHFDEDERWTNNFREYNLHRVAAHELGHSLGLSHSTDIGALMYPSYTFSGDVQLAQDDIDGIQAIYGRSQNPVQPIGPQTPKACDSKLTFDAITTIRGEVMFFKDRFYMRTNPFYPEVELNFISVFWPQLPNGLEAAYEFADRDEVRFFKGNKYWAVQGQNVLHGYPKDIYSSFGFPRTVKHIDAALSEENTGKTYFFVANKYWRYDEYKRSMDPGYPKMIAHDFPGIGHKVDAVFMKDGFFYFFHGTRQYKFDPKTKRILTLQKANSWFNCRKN

[2] = target: MMP-9 (Homo sapiens, UniProt P14780); assay: MMP-9 inhibition (thiopeptide or fluorescent peptide substrate assay)
MMP-9, sequence (P14780 94-707): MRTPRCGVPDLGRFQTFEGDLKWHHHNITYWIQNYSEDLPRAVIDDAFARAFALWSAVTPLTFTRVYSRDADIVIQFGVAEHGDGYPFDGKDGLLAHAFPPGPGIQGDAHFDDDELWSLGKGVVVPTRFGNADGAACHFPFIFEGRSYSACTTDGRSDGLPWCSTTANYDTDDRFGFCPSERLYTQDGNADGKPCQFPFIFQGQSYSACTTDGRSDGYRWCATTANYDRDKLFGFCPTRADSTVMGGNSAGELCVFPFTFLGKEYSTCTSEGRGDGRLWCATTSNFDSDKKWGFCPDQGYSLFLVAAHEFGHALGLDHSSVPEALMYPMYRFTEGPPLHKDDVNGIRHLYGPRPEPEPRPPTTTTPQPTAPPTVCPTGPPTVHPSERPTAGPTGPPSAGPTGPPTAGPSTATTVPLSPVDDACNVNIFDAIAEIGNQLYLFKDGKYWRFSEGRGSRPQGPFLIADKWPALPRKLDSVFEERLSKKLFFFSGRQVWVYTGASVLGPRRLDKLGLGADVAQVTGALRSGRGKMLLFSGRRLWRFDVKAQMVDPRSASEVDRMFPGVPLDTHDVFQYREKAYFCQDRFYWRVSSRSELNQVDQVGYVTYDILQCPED

[3] = target: TACE (Homo sapiens, UniProt P78536); assay: TACE inhibition (fluorescent peptidyl substrate); conditions: for inhibition at 1 µM: at 1µM concentration
TACE, sequence (P78536 215-824): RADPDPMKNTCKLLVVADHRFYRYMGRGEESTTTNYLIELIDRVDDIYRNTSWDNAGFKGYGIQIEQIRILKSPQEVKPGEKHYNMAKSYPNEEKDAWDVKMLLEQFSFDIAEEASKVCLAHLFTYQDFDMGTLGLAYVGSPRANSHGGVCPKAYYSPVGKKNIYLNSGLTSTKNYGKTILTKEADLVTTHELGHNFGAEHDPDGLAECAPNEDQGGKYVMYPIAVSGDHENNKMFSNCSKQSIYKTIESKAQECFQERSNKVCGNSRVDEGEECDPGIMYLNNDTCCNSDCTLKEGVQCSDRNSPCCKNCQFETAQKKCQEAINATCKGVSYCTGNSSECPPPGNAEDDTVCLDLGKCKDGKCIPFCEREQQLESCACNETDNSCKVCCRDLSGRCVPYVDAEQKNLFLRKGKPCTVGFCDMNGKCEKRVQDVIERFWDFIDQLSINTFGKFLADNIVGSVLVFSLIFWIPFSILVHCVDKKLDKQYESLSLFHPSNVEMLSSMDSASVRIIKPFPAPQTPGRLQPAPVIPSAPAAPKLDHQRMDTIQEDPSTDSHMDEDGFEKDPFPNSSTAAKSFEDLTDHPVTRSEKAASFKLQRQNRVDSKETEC

[4] = target: MMP-13 (Homo sapiens, UniProt P45452); assay: MMP-13 inhibition (thiopeptide or fluorescent peptide substrate assay)

Compound	pIC50 [1]	pIC50 ([2]; read-out: MMP-9 IC50)	pIC50 ([4]; read-out: MMP-13 IC50)	pIC50 ([3]; read-out: TACE IC50)	also measured
3-Methyl-2-[4-(pyridin-4-yloxy)-benzensulfonylamino]-N-hydroxy-benzamide [Example 417]	5.49	8.17	–	–	–
COc1ccc(S(=O)(=O)N(Cc2ccccc2)c2ccccc2C(=O)NO)cc1 [Example 23, 2-[Benzyl-(4-methoxy-benzenesulfonyl)-amino]-N-hydroxy-benzamide]	6.19	–	–	< 6.00	pIC50 [2]: 6.19
COc1ccc(S(=O)(=O)N(Cc2ccccc2)c2c(Cl)cccc2C(=O)NO)cc1 [Example 24, 2-[Benzyl-(4-methoxy-benzenesulfonyl)-amino]-3-chloro-N-hydroxy-benzamide]	6.40	7.51	–	–	–
COc1ccc(S(=O)(=O)N(Cc2ccccc2)c2c(C)cccc2C(=O)NO)cc1 [Example 28, 2-[Benzyl-(4-methoxy-benzenesulfonyl)-amino]-N-hydroxy-3-methyl-benzamide]	–	–	–	6.34	pIC50 [4]: 7.30
COc1ccc(S(=O)(=O)N(Cc2ccccc2)c2c(OC)cccc2C(=O)NO)cc1 [Example 101, 2-[Benzyl-(4-methoxy-benzenesulfonyl)-amino]-N-hydroxy-3-methoxy-benzamide]	6.57	–	–	6.37	pIC50 [2]: 7.64
COc1ccc(S(=O)(=O)N(Cc2ccccc2)c2c(C(=O)NO)cccc2C(F)(F)F)cc1 [Example 125, 2-[Benzyl-(4-methoxy-benzenesulfonyl)-amino]-N-hydroxy-3-trifluoromethyl-benzamide]	< 6.00	–	–	6.52	pIC50 [4]: 6.87
COc1ccc(S(=O)(=O)N(C)c2c(CN3CCN(C)CC3)cccc2C(=O)NO)cc1 [Example 194, N-Hydroxy-2-[(4-methoxybenzenesulfonyl)-methylamino]-3-(4-methylpiperazin-1-ylmethyl)-benzamide]	6.51	–	7.92	6.81	–
CCN(CC)Cc1cc(C)c(N(Cc2ccccc2)S(=O)(=O)c2ccc(OC)cc2)c(C(=O)NO)c1 [Example 282, 2-[Benzyl-(4-methoxy-benzenesulfonyl)-amino]-5-diethylaminomethyl-N-hydroxy-3-methyl-benzamide]	5.98	–	6.95	–	inhibition at 1 µM [3]: 44%
COc1ccc(S(=O)(=O)N(Cc2ccccc2)c2c(C(=O)NO)cccc2N(C)C)cc1 [Example 390, 2-[Benzyl-(4-methoxy-benzenesulfonyl)-amino]-3-dimethylamino-N-hydroxy-benzamide]	–	–	–	–	inhibition at 1 µM ([1]; read-out: MMP-1 % inhibition, footnote: 1µM): 19%; pIC50 [4]: 6.27; inhibition at 1 µM [3]: 39%
COc1ccc(S(=O)(=O)N(Cc2cccnc2)c2c(C)cc(-c3ccccc3)cc2C(=O)NO)cc1 [Example 397, 4-[(4-Methoxy-benzenesulfonyl)-pyridin-3-ylmethyl-amino]-5-methyl-biphenyl-3-carboxylic acid hydroxyamide hydrochloride salt]	–	–	–	–	pIC50 [2]: 8.52; pIC50 [3]: 7.19
COc1ccc(S(=O)(=O)N(Cc2cccnc2)c2c(C)cc(-c3ccsc3)cc2C(=O)NO)cc1 [Example 398, N-Hydroxy-2-[(4-methoxy-benzenesulfonyl)-pyridin-3-ylmethyl-amino]-3-methyl-5-thiophen-3-yl-benzamide hydrochloride salt]	7.07	8.70	–	7.25	–
COc1ccc(S(=O)(=O)N(Cc2cccnc2)c2c(C)cc(-c3cccc(C(F)(F)F)c3)cc2C(=O)NO)cc1 [Example 406, 4-[(4-Methoxy-benzenesulfonyl)-pyridin-3-ylmethyl-amino]-5-methyl-3'-trifluoromethyl-biphenyl-3-carboxylic acid hydroxyamide hydrochloride salt]	–	8.96	–	–	–

More lines, main results first:

pIC50 [1]	pIC50 ([2]; read-out: MMP-9 IC50)	pIC50 ([4]; read-out: MMP-13 IC50)	Compound	pIC50 ([3]; read-out: TACE IC50)	also measured
6.05	6.46	6.01	COc1ccc(S(=O)(=O)N(Cc2ccccc2)c2cc(C)ccc2C(=O)NO)cc1 [Example 26, 2-[Benzyl-(4-methoxy-benzenesulfonyl)-amino]-N-hydroxy-4-methyl-benzamide]	< 6.00	–
5.80	6.36	6.14	COc1ccc(S(=O)(=O)N(Cc2ccccc2)c2cccc(C)c2C(=O)NO)cc1 [Example 27, 2-[Benzyl-(4-methoxy-benzenesulfonyl)-amino]-N-hydroxy-6-methyl-benzamide]	< 6.00	–
7.62	8.52	–	COc1ccc(S(=O)(=O)N(Cc2ccccc2)c2c(OCC(=O)NO)cccc2C(=O)NO)cc1 [Example 54, 2-[Benzyl-(4-methoxy-benzenesulfonyl)-amino]-N-hydroxy-3-hydroxycarbamoylmethoxy-benzamide]	–	pIC50 [4]: 8.40
–	6.88	–	CCCCC#Cc1cc(C)c(N(Cc2ccccc2)S(=O)(=O)c2ccc(OC)cc2)c(C(=O)NO)c1 [Example 77, 2-[Benzyl-(4-methoxy-benzenesulfonyl)-amino]-5-hex-1-ynyl-N-hydroxy-3-methyl-benzamide]	–	–
–	6.18	–	COc1ccc(S(=O)(=O)N(Cc2cccnc2)c2ccccc2C(=O)NO)cc1 [Example 85, N-Hydroxy-2-[(4-methoxy-benzenesulfonyl)-pyridin-3-ylmethyl-amino]-benzamide]	< 6.00	–
6.50	7.54	–	COc1ccc(S(=O)(=O)N(Cc2ccccc2)c2c(C(=O)NO)ccc(Cl)c2C)cc1 [Example 102, 2-[Benzyl-(4-methoxy-benzenesulfonyl)-amino]-4-chloro-N-hydroxy-3-methyl-benzamide]	6.79	–
< 6.00	6.98	6.87	COc1ccc(S(=O)(=O)N(Cc2ccccc2)c2c(C(=O)NO)cc(OC)c(OC)c2OC)cc1 [Example 156, 2-[Benzyl-(4-methoxy-benzenesulfonyl)-amino]-N-hydroxy-3,4,5-trimethoxy-benzamide]	–	–
< 6.00	7.96	7.21	COc1ccc(S(=O)(=O)N(Cc2cccnc2)c2c(C(=O)NO)cc(OC)c(OC)c2OC)cc1 [Example 158, N-Hydroxy-3,4,5-trimethoxy-2-[(4-methoxy-benzenesulfonyl)-pyridin-3-ylmethyl-amino]-benzamide]	–	–
–	6.54	6.46	COc1ccc(S(=O)(=O)N2CCCOc3cccc(C(=O)NO)c32)cc1 [Example 165, 5-(4-Methoxy-benzenesulfonyl)-2,3,4,5-tetrahydro-1,5-benzoxazepine-6-carboxylic acid hydroxyamide]	–	–
–	6.69	< 6.52	COc1ccc(S(=O)(=O)N2Cc3ccccc3COc3cccc(C(=O)NO)c32)cc1 [Example 166, 12-(4-Methoxy-benzenesulfonyl)-11,12-dihydro-6H-dibenz[b,f][1,4]oxazocine-1-carboxylic acid hydroxyamide]	–	–
–	7.38	6.75	COc1ccc(S(=O)(=O)N2CCCCOc3cccc(C(=O)NO)c32)cc1 [Example 167, 6-(4-Methoxy-benzenesulfonyl)-3,4,5,6-tetrahydro-2H-1,6-benzoxazocine-7-carboxylic acid hydroxyamide]	–	–
6.54	–	7.62	CCOc1ccc(S(=O)(=O)N(Cc2ccccc2)c2c(C)cc(C)cc2C(=O)NO)cc1 [Example 302, 2-[Benzyl-(4-ethoxy-benzenesulfonyl)-amino]-N-hydroxy-3,5-dimethyl-benzamide]	6.76	–
5.56	7.19	6.98	CCCOc1ccc(S(=O)(=O)N(Cc2ccccc2)c2c(C)cc(C)cc2C(=O)NO)cc1 [Example 303, 2-[Benzyl-(4-propoxy-benzenesulfonyl)-amino]-N-hydroxy-3,5-dimethyl-benzamide]	–	–
5.39	–	6.52	Cc1cc(C)c(N(Cc2ccccc2)S(=O)(=O)c2ccc(OC(C)C)cc2)c(C(=O)NO)c1 [Example 304, 2-[Benzyl-(4-isopropoxy-benzenesulfonyl)-amino]-N-hydroxy-3,5-dimethyl-benzamide]	–	inhibition at 1 µM [3]: 25%
6.68	8.19	–	COC(=O)c1cccc(C(=O)NO)c1N(Cc1cccnc1)S(=O)(=O)c1ccc(OC)cc1 [Example 369, N-Hydroxy-2-[(4-methoxy-benzenesulfonyl)-pyridin-3-ylmethyl-amino]-isophthalamic acid methyl ester]	–	pIC50 [3]: 7.42
–	8.19	–	COc1ccc(S(=O)(=O)N(Cc2ccc(N3CCN(C)CC3)cc2)c2c(C)cccc2C(=O)NO)cc1 [Example 382, N-Hydroxy-2-{(4-methoxy-benzenesulfonyl)-[4-(4-methyl-piperazin-1-yl)-benzyl]-amino}-3-methyl-benzamide]	–	pIC50 [4]: 7.70; pIC50 [3]: 6.84
5.77	6.70	7.46	Cc1cccc(C(=O)NO)c1N(Cc1ccc(Cl)cc1)S(=O)(=O)c1ccc(-c2ccccn2)s1 [Example 407, 2-[(4-Chloro-benzyl)-(5-pyridin-2-yl-thiophene-2-sulfonyl)-amino]-N-hydroxy-3-methyl-benzamide]	–	–
5.46	6.14	6.83	Cc1ccc(CN(c2c(C)cccc2C(=O)NO)S(=O)(=O)c2ccc(-c3ccccn3)s2)cc1C [Example 408, 2-[(3,4-Dimethyl-benzyl)-(5-pyridin-2-yl-thiophene-2-sulfonyl)-amino]-N-hydroxy-3-methyl-benzamide]	–	–
